Source: EPA's ToxRefDB 2

How the values were obtained:
[1] = system: rat; settings: Subchronic oral toxicity in rodents, sprague dawley, Feed, dose end: 13 week, group: systemic, systemic / clinical chemistry / globulins / globulins + systemic / clinical chemistry / protein / protein + systemic / organ weight / liver…
[2] = system: dog; settings: Subchronic oral toxicity in nonrodent, beagle, Feed, dose end: 13 week, group: systemic
[3] = system: rat; settings: Multigenerational reproductive toxicity study, sprague dawley, Oral, Feed, dose end: 2 generation
[4] = system: rat; settings: Combined chronic toxicity/carcinogenicity, sprague dawley, Oral, Feed, dose end: 104 week, group: systemic
[5] = system: rabbit; settings: Prenatal developmental toxicity study, other, Oral, Gavage/Intubation, dose end: 18 GD
[6] = system: mouse; settings: Subchronic oral toxicity in rodents, cd1, Feed, dose end: 13 week, group: systemic
[7] = system: dog; settings: Chronic toxicity; beagle; Oral; Feed; dose end: 6 month; group: systemic; systemic / clinical chemistry / cholesterol / cholesterol + systemic / organ weight / liver / absolute + systemic / organ weight / liver / …
[8] = system: mouse; settings: Carcinogenicity, cd1, Oral, Feed, dose end: 104 week, group: systemic
[9] = system: rabbit; settings: Prenatal developmental toxicity study, new zealand white, Oral, Gavage/Intubation, dose end: 19 GD
[10] = system: mouse; settings: Combined chronic toxicity/carcinogenicity, cd1, Oral, Feed, dose end: 104 week, group: systemic
[11] = system: rat; settings: Multigenerational reproductive toxicity study, wistar, Oral, Feed, dose end: 2 generation
[12] = system: rat; settings: Prenatal developmental toxicity study, sprague dawley, Oral, Gavage/Intubation, dose end: 15 GD
[13] = systemic / clinical chemistry / triglycerides / triglycerides + systemic / in life observation / clinical signs / mucoid stools + systemic…
[14] = systemic / in life observation / clinical signs / vomiting
[15] = group: offspring, developmental / offspring survival late / viability index / viability index + systemic / in life observation / body weight / offspring (pup…
[16] = group: parental, systemic / organ weight / adrenal gland / relative to body weight + systemic / organ weight / adrenal gland / relative to brain weight
[17] = group: parental, systemic / organ weight / adrenal gland / relative to body weight + systemic / organ weight / adrenal gland / relative to brain weight + …
[18] = systemic / in life observation / clinical signs / tooth-malocclusion
[19] = group: developmental, developmental / developmental malformation / bone / full supernumerary
[20] = group: maternal, systemic / in life observation / body weight / body weight gain + systemic / in life observation / food consumption / food consumption + …
[21] = systemic / clinical chemistry / alkaline phosphatase (alp/alk) / alkaline phosphatase (alp/alk) + systemic / organ weight / liver / absolute…
[22] = systemic / organ weight / liver / absolute + systemic / organ weight / liver / relative to body weight + systemic / pathology gross / spleen…
[23] = systemic / pathology microscopic / liver / [other]
[24] = group: developmental, developmental / developmental malformation / bone / incomplete ossification + developmental / developmental malformation / bone / …
[25] = group: developmental, developmental / developmental malformation / bone / unossified
[26] = group: maternal, reproductive / reproductive performance / aborted / aborted + systemic / in life observation / body weight / body weight gain
[27] = systemic / organ weight / liver / absolute + systemic / pathology gross / spleen / enlarged + systemic / pathology microscopic / kidney / …
[28] = group: offspring, systemic / in life observation / body weight / offspring (pup) weight gain + systemic / organ weight / liver / relative to body weight
[29] = group: offspring, systemic / in life observation / body weight / offspring (pup) weight gain + systemic / organ weight / liver / relative to body weight + …
[30] = group: parental, systemic / organ weight / kidney / absolute + systemic / organ weight / kidney / relative to body weight + systemic / organ weight / liver…
[31] = group: reproductive, reproductive / reproductive performance / precoital interval / precoital interval
[32] = group: developmental, developmental / developmental malformation / bone / bipartite ossification + developmental / developmental malformation / bone / short …
[33] = group: maternal, systemic / in life observation / body weight / body weight gain
[34] = group: maternal, systemic / in life observation / body weight / body weight gain + systemic / in life observation / food consumption / food consumption

In the case of `CCOc1cc(C(C)(C)C)ccc1C1COC(c2c(F)cccc2F)=N1` (configuration not stated) [Etoxazole], the LEL [1] is reported as 300 mg/kg/day, the LOAEL [1] is reported as 300 mg/kg/day and the NEL [1] is reported as less than 300 mg/kg/day. The NOAEL [1] was less than 300 mg/kg/day, the LOAEL [2, 13] was 53.7 mg/kg/day and the NOAEL [2, 13] was 5.33 mg/kg/day. For the same molecule, the LEL [2, 14] was 5.33 mg/kg/day, the NEL [2, 14] was less than 5.33 mg/kg/day and the LOAEL ([3]; group: offspring, developmental / offspring survival late / viability index / viability index) was 157 mg/kg/day. It also gave an LEL [3, 15] of 157 mg/kg/day, an NEL [3, 15] of 31.6 mg/kg/day and an NOAEL [3, 15] of 31.6 mg/kg/day. For the same molecule, the NEL [3, 16] was 33.4 mg/kg/day, the NOAEL [3, 16] was 33.4 mg/kg/day and the LEL [3, 17] was 139 mg/kg/day. For the same molecule, the LOAEL [3, 17] was 139 mg/kg/day, the LOAEL ([4]; systemic / in life observation / clinical signs / tooth nos) was 187 mg/kg/day and the NOAEL ([4]; systemic / in life observation / clinical signs / tooth nos + systemic / hematology / blood clotting / blood clotting - activated partial …) was 1.83 mg/kg/day. It also gave an LEL [4, 18] of 2.07 mg/kg/day, an NEL [4, 18] of less than 2.07 mg/kg/day and an LEL [5, 19] of 1000 mg/kg/day. It also gave an LOAEL [5, 19] of 1000 mg/kg/day, an NEL [5, 19] of 200 mg/kg/day and an NOAEL [5, 19] of 200 mg/kg/day. The LEL [5, 20] was 1000 mg/kg/day, the LOAEL [5, 20] was 1000 mg/kg/day and the NEL [5, 20] was 200 mg/kg/day. The NOAEL [5, 20] was 200 mg/kg/day, the LOAEL [6, 21] was 878 mg/kg/day and the NEL [6, 21] was 55.1 mg/kg/day. For the same molecule, the NOAEL [6, 21] was 214 mg/kg/day and the LEL ([6]; systemic / organ weight / liver / absolute + systemic / organ weight / liver / relative to body weight + systemic / pathology microscopic / …) was 214 mg/kg/day.

Work on `CNc1cnn(-c2cccc(C(F)(F)F)c2)c(=O)c1Cl` [Norflurazon] yielded an LEL [7] of 4.77 mg/kg/day, an LOAEL [7] of 4.77 mg/kg/day and an NEL [7] of 1.58 mg/kg/day. It also gave an NOAEL [7] of 1.58 mg/kg/day, an LOAEL [8, 22] of 58.7 mg/kg/day and an NOAEL [8, 22] of 12.8 mg/kg/day. The LEL [8, 23] was 12.8 mg/kg/day, the NEL [8, 23] was less than 12.8 mg/kg/day and the LOAEL [9, 24] was 30 mg/kg/day. The NOAEL [9, 24] was 10 mg/kg/day, the LEL [9, 25] was 10 mg/kg/day and the NEL [9, 25] was less than 10 mg/kg/day. The LEL [9, 26] was 60 mg/kg/day, the LOAEL [9, 26] was 60 mg/kg/day and the NEL [9, 26] was 30 mg/kg/day. For the same molecule, the NOAEL [9, 26] was 30 mg/kg/day, the NEL ([10]; systemic / organ weight / liver / absolute + systemic / organ weight / liver / relative to body weight + systemic / pathology gross / liver…) was 12.8 mg/kg/day and the LEL [10, 27] was 58.7 mg/kg/day. For the same molecule, the LOAEL [10, 27] was 58.7 mg/kg/day, the NOAEL [10, 27] was 12.8 mg/kg/day and the LEL [11, 28] was 67.8 mg/kg/day. For the same molecule, the LOAEL [11, 28] was 67.8 mg/kg/day, the NEL [11, 29] was 13.2 mg/kg/day and the NOAEL [11, 29] was 13.2 mg/kg/day. For the same molecule, the LEL [11, 30] was 50.8 mg/kg/day, the LOAEL [11, 30] was 50.8 mg/kg/day and the NEL [11, 30] was 10.2 mg/kg/day. For the same molecule, the NOAEL [11, 30] was 10.2 mg/kg/day, the LEL [11, 31] was 102 mg/kg/day and the LOAEL [11, 31] was 102 mg/kg/day. It also gave an NEL [11, 31] of 50.8 mg/kg/day, an NOAEL [11, 31] of 50.8 mg/kg/day and an LEL [12, 32] of 400 mg/kg/day. The LOAEL [12, 32] was greater than 400 mg/kg/day, the NEL [12, 32] was 200 mg/kg/day and the NOAEL [12, 32] was no less than 400 mg/kg/day. It also gave an LOAEL [12, 33] of 100 mg/kg/day, an NOAEL [12, 33] of less than 100 mg/kg/day and an LEL [12, 34] of 100 mg/kg/day. It also gave an NEL [12, 34] of less than 100 mg/kg/day.
